According to patent US20250026770A1, “NOVEL BORONSOME FACILITATING DIAGNOSIS AND TREATMENT” (PEKING UNIVERSITY, priority 2021, published 2025):

Tested on: DNA repair system
Assay: γ-h2ax staining
Excerpt: In terms of integration of radiotherapy and chemotherapy, the preferred drug for encapsulation was Doxorubicin. […] Subsequently, we considered that if we could start from the principles of BNCT and selected individual drugs that disrupt the DNA replication process, its efficacy could be further enhanced. Therefore, a poly(ADP-ribose)polymerase (PARP) inhibitor (olaparib) was selected.

Structure (SMILES): O=C(c1cc(Cc2n[nH]c(=O)c3ccccc23)ccc1F)N1CCN(C(=O)C2CC2)CC1 [olaparib]
- Interference on the DNA repair system: verified its interference on the DNA repair system
